According to patent publication EP4559911A1, “NOVEL HETEROCYCLIC COMPOUND AND PHARMACEUTICAL COMPOSITION FOR INHIBITING AUTOTAXIN COMPRISING THE SAME” (Nextgen Bioscience Co., Ltd., priority 2022, dated 2024):

Target: human Autotaxin protein (Homo sapiens, UniProt Q13822)
Assay: Evaluation of the inhibitory activity against human Autotaxin protein (18:1 LysoPC substrate, choline assay kit, absorbance at 570 nm)
Format: biochemical
Conditions: compound at 500nM; 2 hours at 37 °C; % inhibition = (1 - absorbance test group / absorbance control group) X 100
Experimental: Solutions of each compound synthesized (80 uM, 100% dimethyl sulfoxide) were sequentially diluted 5-fold with dimethyl sulfoxide to prepare 6 concentrations. Each concentration of the compound was diluted 2-fold with 1x test buffer (50 mM Tris-Cl (pH 8.0), 5 mM KCl, 1 mM CaCl2, 1 mM MgCl2, 140 mM NaCl, deionized water, 1 mg/mL BSA), and 1 uL (1.25% dimethyl sulfoxide) of this diluted mixture was dispensed into each well of a 96-well clear round-bottom plate. 9 uL of 1x test buffer was added, and 20 uL of 240 nM human autotaxin protein (buffer: 50 mM Tris-HCl, pH 8.0, with 150 mM sodium chloride and 20% glycerol) was added. 10 uL of sonicated 360 uM 18:1 LysoPC (diluted with 1x assay buffer) was added. The reaction was performed for 2 hours in a shaking incubator at 37 °C, and a secondary reaction mixture (choline assay kit, KA1662) (65 uL of 1x assay buffer: 1 uL of choline oxidase: 1 uL of dye probe) was prepared. 60 uL of the secondary reaction mixture was added to the plate where the reaction was performed, and incubated for 30 minutes in a shaker. The absorbance value was measured at a wavelength of 570 nm using a SpectraMax iD3 microplate reader. The percentage inhibition activity value (% inhibition) was calculated by the formula: (1 - absorbance value test group / absorbance value control group) X 100.

| inhibition at 0.5 µM | SMILES |
| --- | --- |
| 10.9% | Fc1cc2c(cc1F)CC(Nc1ncc(-c3nnc(N4CCC(n5cncn5)C4)o3)cn1)C2 (stereo not drawn) [Example 28, 5-(5-(3-(1H-1,2,4-triazol-1-yl)pyrrolidin-1-yl)-1,3,4-oxadiazol-2-yl)-N-(5,6-difluoro-2,3-dihydro-1H-inden-2-yl)pyrimidin-2-amine] |
| 9.2% | Cc1ncn(C2CCN(c3nnc(-c4cnc(NC5Cc6cc(F)c(F)cc6C5)nc4)o3)C2)n1 (stereo not drawn) [Example 29, N-(5,6-difluoro-2,3-dihydro-1H-inden-2-yl)-5-(5-(3-(3-methyl-1H-1,2,4-triazol-1-yl)pyrrolidin-1-yl)-1,3,4-oxadiazol-2-yl)pyrimidin-2-amine] |
| 96.9% | CC1(c2c[nH]nn2)CCN(c2nnc(-c3cnc(NC4Cc5cc(F)c(F)cc5C4)nc3)o2)C1 (stereo not drawn) [Example 30, N-(5,6-difluoro-2,3-dihydro-1H-inden-2-yl)-5-(5-(3-methyl-3-(1H-1,2,3-triazol-4-yl)pyrrolidin-1-yl)-1,3,4-oxadiazol-2-yl)pyrimidin-2-amine] |
| 96.8% | CC1(c2c[nH]nn2)CCN(c2nnc(-c3cnc(NC4Cc5ccccc5C4)nc3)o2)C1 (stereo not drawn) [Example 31, N-(2,3-dihydro-1H-inden-2-yl)-5-(5-(3-methyl-3-(1H-1,2,3-triazol-4-yl)pyrrolidin-1-yl)-1,3,4-oxadiazol-2-yl)pyrimidin-2-amine] |
| 21.9% | CC1(c2c[nH]nn2)CCN(c2nnc(-c3cnc(NCCc4cc(Cl)cc(Cl)c4)nc3)o2)C1 (stereo not drawn) [Example 32, N-(3,5-dichlorophenethyl)-5-(5-(3-methyl-3-(1H-1,2,3-triazol-4-yl)pyrrolidin-1-yl)-1,3,4-oxadiazol-2-yl)pyrimidin-2-amine] |
| 29.1% | CC1(c2c[nH]nn2)CCN(c2nnc(-c3cnc(NCc4cc(F)cc(F)c4)nc3)o2)C1 (stereo not drawn) [Example 33, N-(3,5-difluorobenzyl)-5-(5-(3-methyl-3-(1H-1,2,3-triazol-4-yl)pyrrolidin-1-yl)-1,3,4-oxadiazol-2-yl)pyrimidin-2-amine] |
| 88.4% | CC1(c2c[nH]nn2)CCN(C(=O)/C=C/c2cnc(NC3Cc4ccccc4C3)nc2)C1 (stereo not drawn) [Example 34, (E)-3-(2-((2,3-dihydro-1H-inden-2-yl)amino)pyrimidin-5-yl)-1-(3-methyl-3-(1H-1,2,3-triazol-4-yl)pyrrolidin-1-yl)prop-2-en-1-one] |
| 1.3% | Cn1cc(C2CCN(c3nnc(-c4cnc(NC5Cc6cc(F)c(F)cc6C5)nc4)o3)C2)nn1 (stereo not drawn) [Example 35, N-(5,6-difluoro-2,3-dihydro-1H-inden-2-yl)-5-(5-(3-(1-methyl-1H-1,2,3-triazol-4-yl)pyrrolidin-1-yl)-1,3,4-oxadiazol-2-yl)pyrimidin-2-amine] |
| 97.4% | Fc1ccc2c(c1)CC(Nc1ncc(-c3nnc(N4CCC(c5c[nH]nn5)C4)o3)cn1)C2 (stereo not drawn) [Example 36, 5-(5-(3-(1H-1,2,3-triazol-4-yl)pyrrolidin-1-yl)-1,3,4-oxadiazol-2-yl)-N-(5-fluoro-2,3-dihydro-1H-inden-2-yl)pyrimidin-2-amine] |
| 97.9% | Clc1ccc2c(c1)CC(Nc1ncc(-c3nnc(N4CCC(c5c[nH]nn5)C4)o3)cn1)C2 (stereo not drawn) [Example 37, 5-(5-(3-(1H-1,2,3-triazol-4-yl)pyrrolidin-1-yl)-1,3,4-oxadiazol-2-yl)-N-(5-chloro-2,3-dihydro-1H-inden-2-yl)pyrimidin-2-amine] |
| 55% | Fc1cc2c(cc1F)CC(Nc1ncc(-c3nnc(N4CCC(c5c[nH]cn5)C4)o3)cn1)C2 (stereo not drawn) [Example 38, 5-(5-(3-(1H-imidazol-4-yl)pyrrolidin-1-yl)-1,3,4-oxadiazol-2-yl)-N-(5,6-difluoro-2,3-dihydro-1H-inden-2-yl)pyrimidin-2-amine] |
| 98% | Fc1cc2c(cc1F)CC(Nc1ncc(-c3nnc(N4CC(c5c[nH]nn5)C4)o3)cn1)C2 [Example 39, 5-(5-(3-(1H-1,2,3-triazol-4-yl)azetidin-1-yl)-1,3,4-oxadiazol-2-yl)-N-(5,6-difluoro-2,3-dihydro-1H-inden-2-yl)pyrimidin-2-amine] |
